Article PMC6535779, “A Specific, Glycomimetic Langerin Ligand for Human Langerhans Cell Targeting” (ACS Central Science, 2019)
Like-named read-outs stand apart in the source and are kept apart here.

Target: T1, Langerin CRD (Homo sapiens, UniProt Q9UJ71)
T1 construct: made in house
Assay: 15N HSQC NMR titration, KD determination
Format: binding
Description: Receptor Expression and Purification
General remarks. Codon-optimized genes for the expression of Langerin and DC-SIGN in E. coli were purchased from GenScript and Life Technologies, respectively. All growth media or chemicals used for receptor expression and purification were purchased from Carl Roth if not stated otherwise. […]
Langerin and DC-SIGN carbohydrate recognition domain. Expression and purification were conducted as previously published14. Briefly, the monomeric 15N-labeled Langerin and DC-SIGN carbohydrate recognition domains (CRDs) were expressed insolubly in E. coli BL21* (DE3) (Invitrogen). Following enzymatic cell lysis, inclusion bodies were harvested and subsequently solubilized. The sample was centrifuged and the Langerin and DC-SIGN CRDs were refolded overnight via rapid dilution. Next, the sample was dialyzed overnight, centrifuged and purified via StrepTactin affinity chromatography (Iba). After an additional dialysis step overnight, the sample was centrifuged and the buffer was exchanged to 25 mM HEPES with 150 mM NaCl at pH 7.0 using 7 kDa size-exclusion desalting columns (Thermo Scientific) for 19F R2-filtered and 15N HSQC NMR experiments. The concentration of Langerin and DC -SIGN CRDs was determined via UV spectroscopy (A280, 0.1% = 3.19 and A280, 0.1% = 2.98). Purity and monodispersity of Langerin and DC - SIGN CRD samples were analyzed via SDS PAGE and DLS. […]
KI determination. KI values were determined as previously published for Langerin3. Briefly, titration experiments were conducted at a concentration of 0.1 mM of reporter ligand 24 at five competitor concentrations [I]T. Samples were prepared via serial dilution. For the acids GlcNS, GlcNAc-6-OS and GlcNS-6-OS the pH values were monitored and adjusted to 7.8 if necessary.
General remarks. 15N HSQC NMR experiments were conducted on an Ascend 700 MHz spectrometer (Bruker)16. Spectra were processed in NMRPipe17. Data analysis was performed using CCPN Analysis, MatLab and OriginPro15, 18-19. Experiments with the Langerin CRD were performed at a receptor concentration of 100 μM in 25 mM HEPES with 10% D 2O, 150 mM NaCl and 5 mM CaCl2 at pH 7.8 and 25° C. DSS-d6 served as an internal reference at a concentration of 100 μM. Spectra were referenced via the internal spectrometer reference. Spectra were acquired with 128 increments and 32 scans per increments for 150 μl samples in 3 mm sample tubes. The relaxation delay d1 was set to 1.4 s and the acquisition time tacq was set to 100 ms. The W5 Watergate pulse sequence was used for solvent suppression20. The used resonance assignment for the Langerin CRD has been published […]
KD determination. KD values were determined in titration experiments at six ligand concentrations [L]T. Samples were prepared via serial dilution. Chemical shift perturbations CSPs for Langerin CRD resonances in the fast or fast-to-intermediate exchange regime observed upon titration with ligand were calculated via Equation 121.
A standard deviation σ of 0.02 ppm was previously determined for the measurement of chemical shifts in 15N HSQC NMR experiments with the Langerin CRD1. Accordingly, only assigned resonances that […]
for the determination of KD values via Equation 2 in a global two parameter fit21. Standard errors were derived directly from the fitting procedures.
Δv0.5 larger than 10 Hz upon titration in either the 1H or the 15N dimension were not considered for the determination of KD values. CSPmax represents the CSP value observed upon saturation of the binding […]

[1] = CSPs of fast-exchanging resonances, read-out: KD, Langerin (KD,fast)
[2] = from integrals V of resonances in slow exchange, read-out: KD, Langerin (KD,slow)

T1 sequence (Q9UJ71 202-320 limits assumed): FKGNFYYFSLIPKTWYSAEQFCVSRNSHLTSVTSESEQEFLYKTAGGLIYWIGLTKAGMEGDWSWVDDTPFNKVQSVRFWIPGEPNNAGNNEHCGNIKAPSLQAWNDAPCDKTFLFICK

Row | Kd [1] | Kd [2] | Structure (SMILES)
1 | 460 ± 40 µM | 500 ± 200 µM | Cc1ccc(S(=O)(=O)N[C@H]2C(O)O[C@H](CO)[C@@H](O)[C@@H]2O)cc1 (some centres unmarked) [compound 2]
2 | 12000 ± 1000 µM | – | CC(=O)NCCO[C@H]1O[C@H](CO)[C@@H](O)[C@H](O)[C@@H]1O [compound 21]
3 | 230 ± 70 µM | 300 ± 100 µM | CC(=O)NCCO[C@@H]1O[C@H](CO)[C@@H](O)[C@H](O)[C@H]1NS(=O)(=O)c1ccc(C)cc1 [compound 16]
